Key:
[1] = Test for water solubility; type: physicochemical; conditions: water
From the text: 3. Test for water solubility
A standard plot of UV absorbance(220 nm) vs. concentration was made; and employed to determine water-solubility.
The mixture was then passed through a 0.45 micron disposable membrane filter before dilution and UV measurement.

[2] = test system: murine leukemia L1210 cells; assay: Growth inhibition test on cultured murine leukemia L1210 cells; type: cell-based; conditions: 48 hours, 37° C., Trypan blue viability
Summary of the method: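 Read-out is Trypan blue (0.17%) viability versus compound-free controls. Cells, 1×10^5, were cultured 48 h at 37° C under 5% CO2 in RPMI 1640/10% FCS containing various compound concentrations.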

ICR mice = assay: Acute toxicity test; type: in vivo; set-up: Lethality: unit not given here; conditions: for Lethality: 10080 min
Protocol: 7-week-old ICR mice(male: 34±2 g; female: 31±2 g) were fed with solid food and water under the condition of 23±1° C. temperature and 65±5% humidity before the test.
Each treatment group consisted of 6 mice. The test compounds were administered intraperitoneally.
For 7 days after the administration, the appearance and the fate of the tested animals were recorded. The dead animals were subjected to autopsy and their visible pathological changes were observed. Their viscerals were stored in 10% formalin solution.

murine leukemia L1210 = assay: Antitumor activity test on murine leukemia L1210 in vivo; set-up: species or system male BDF1 mice; conditions: days 1, 5, 9
Summary of the method: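 Male BDF1 mice (6 weeks, 21±3 g; n=7) received 1×10^6 leukemia cells into the peritoneum on day 0, then test compound suspended or dissolved in 0.5% CMC i.p. on days 1, 5, 9. Activity expressed as T/C %, mean survival treated versus 0.5% CMC-injected controls.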

CC(C)C1O[C@H](CN)[C@@H](CN)O1.O=C1C[O][Pt][O]1 [Example 7, (glycolato-O,O')[(4R,5R)-4,5-bis(aminomethyl)-2-isopropyl-1,3-dioxolane]platinum(II)]
Solubility in water [1]: > 30 mg/mL
IC50 (concentration required for 50% inhibition of growth) [2]: 0.06 mg/L
Number of dead mice for 7 days (ICR mice; female, 25.0 mg/kg i.p.): 0/6
Number of dead mice, 1st day (ICR mice; female, 25.0 mg/kg i.p.): 0/6
Number of dead mice for 7 days (ICR mice; female, 32.5 mg/kg i.p.): 0/6
Number of dead mice, 1st day (ICR mice; female, 32.5 mg/kg i.p.): 0/6
Number of dead mice for 7 days (ICR mice; female, 42.3 mg/kg i.p.): 1/6
Number of dead mice, 1st day (ICR mice; female, 42.3 mg/kg i.p.): 0/6
Number of dead mice, 3rd day (ICR mice; female, 42.3 mg/kg i.p.): 1/6
Lethality (ICR mice; female, 42.3 mg/kg i.p.): 16.7
Number of dead mice for 7 days (ICR mice; female, 55.0 mg/kg i.p.): 2/6
Number of dead mice, 1st day (ICR mice; female, 55.0 mg/kg i.p.): 0/6
Number of dead mice, 3rd day (ICR mice; female, 55.0 mg/kg i.p.): 1/6
Number of dead mice, 4th day (ICR mice; female, 55.0 mg/kg i.p.): 1/5
Lethality (ICR mice; female, 55.0 mg/kg i.p.): 33.3
Number of dead mice for 7 days (ICR mice; female, 71.4 mg/kg i.p.): 4/6
Number of dead mice, 1st day (ICR mice; female, 71.4 mg/kg i.p.): 0/6
Number of dead mice, 3rd day (ICR mice; female, 71.4 mg/kg i.p.): 3/6
Number of dead mice, 4th day (ICR mice; female, 71.4 mg/kg i.p.): 1/3
Lethality (ICR mice; female, 71.4 mg/kg i.p.): 66.7
Number of dead mice for 7 days (ICR mice; male, 25.0 mg/kg i.p.): 0/6
Number of dead mice, 1st day (ICR mice; male, 25.0 mg/kg i.p.): 0/6
Number of dead mice for 7 days (ICR mice; male, 32.5 mg/kg i.p.): 0/6
Number of dead mice, 1st day (ICR mice; male, 32.5 mg/kg i.p.): 0/6
Number of dead mice for 7 days (ICR mice; male, 42.3 mg/kg i.p.): 2/6
Number of dead mice, 1st day (ICR mice; male, 42.3 mg/kg i.p.): 0/6
Number of dead mice, 3rd day (ICR mice; male, 42.3 mg/kg i.p.): 1/6
Number of dead mice, 5th day (ICR mice; male, 42.3 mg/kg i.p.): 1/5
Lethality (ICR mice; male, 42.3 mg/kg i.p.): 33.3
Number of dead mice for 7 days (ICR mice; male, 55.0 mg/kg i.p.): 2/6
Number of dead mice, 1st day (ICR mice; male, 55.0 mg/kg i.p.): 0/6
Number of dead mice, 3rd day (ICR mice; male, 55.0 mg/kg i.p.): 1/6
Number of dead mice, 4th day (ICR mice; male, 55.0 mg/kg i.p.): 1/5
Lethality (ICR mice; male, 55.0 mg/kg i.p.): 33.3
Number of dead mice for 7 days (ICR mice; male, 71.4 mg/kg i.p.): 4/6
Number of dead mice, 1st day (ICR mice; male, 71.4 mg/kg i.p.): 0/6
Number of dead mice, 3rd day (ICR mice; male, 71.4 mg/kg i.p.): 2/6
Number of dead mice, 4th day (ICR mice; male, 71.4 mg/kg i.p.): 2/4
Lethality (ICR mice; male, 71.4 mg/kg i.p.): 66.7
T/C (%) (murine leukemia L1210; 3.1 mg/kg i.p.): 155%
T/C (%) (murine leukemia L1210; 6.2 mg/kg i.p.): 166%
T/C (%) (murine leukemia L1210; 12.5 mg/kg i.p.): 191%
T/C (%) (murine leukemia L1210; 25 mg/kg i.p.): toxic
T/C (%) (murine leukemia L1210; 50 mg/kg i.p.): toxic

CCC1(CC)OC2C[NH2+][Pt-2]3([NH2+]CC2O1)[O]CC(=O)[O]3 [Example 8, (glycolato-O,O')[(4R,5R)-4,5-bis(aminomethyl)-2,2-diethyl-1,3-dioxolane]platinum(II)]
Solubility in water [1]: > 30 mg/mL
IC50 (concentration required for 50% inhibition of growth) [2]: 0.06 mg/L
Number of dead mice for 7 days (ICR mice; female, 41.3 mg/kg i.p.): 0/6
Number of dead mice, 1st day (ICR mice; female, 41.3 mg/kg i.p.): 0/6
Lethality (ICR mice; female, 41.3 mg/kg i.p.): 0.0
Number of dead mice for 7 days (ICR mice; female, 54.9 mg/kg i.p.): 3/6
Number of dead mice, 1st day (ICR mice; female, 54.9 mg/kg i.p.): 0/6
Number of dead mice, 3rd day (ICR mice; female, 54.9 mg/kg i.p.): 1/6
Number of dead mice, 4th day (ICR mice; female, 54.9 mg/kg i.p.): 2/5
Lethality (ICR mice; female, 54.9 mg/kg i.p.): 50.0
Number of dead mice for 7 days (ICR mice; female, 71.4 mg/kg i.p.): 5/6
Number of dead mice, 1st day (ICR mice; female, 71.4 mg/kg i.p.): 0/6
Number of dead mice, 4th day (ICR mice; female, 71.4 mg/kg i.p.): 2/6
Number of dead mice, 5th day (ICR mice; female, 71.4 mg/kg i.p.): 3/4
Lethality (ICR mice; female, 71.4 mg/kg i.p.): 83.7
Number of dead mice for 7 days (ICR mice; female, 91.8 mg/kg i.p.): 6/6
Number of dead mice, 1st day (ICR mice; female, 91.8 mg/kg i.p.): 0/6
Number of dead mice, 2nd day (ICR mice; female, 91.8 mg/kg i.p.): 1/6
Number of dead mice, 3rd day (ICR mice; female, 91.8 mg/kg i.p.): 3/5
Number of dead mice, 4th day (ICR mice; female, 91.8 mg/kg i.p.): 2/2
Lethality (ICR mice; female, 91.8 mg/kg i.p.): 100.0
Number of dead mice for 7 days (ICR mice; male, 41.3 mg/kg i.p.): 0/6
Number of dead mice, 1st day (ICR mice; male, 41.3 mg/kg i.p.): 0/6
Lethality (ICR mice; male, 41.3 mg/kg i.p.): 0.0
Number of dead mice for 7 days (ICR mice; male, 54.9 mg/kg i.p.): 4/6
Number of dead mice, 1st day (ICR mice; male, 54.9 mg/kg i.p.): 0/6
Number of dead mice, 3rd day (ICR mice; male, 54.9 mg/kg i.p.): 2/6
Number of dead mice, 4th day (ICR mice; male, 54.9 mg/kg i.p.): 2/4
Lethality (ICR mice; male, 54.9 mg/kg i.p.): 66.7
Number of dead mice for 7 days (ICR mice; male, 71.4 mg/kg i.p.): 5/6
Number of dead mice, 1st day (ICR mice; male, 71.4 mg/kg i.p.): 0/6
Number of dead mice, 3rd day (ICR mice; male, 71.4 mg/kg i.p.): 1/6
Number of dead mice, 4th day (ICR mice; male, 71.4 mg/kg i.p.): 4/5
Lethality (ICR mice; male, 71.4 mg/kg i.p.): 83.3
Number of dead mice for 7 days (ICR mice; male, 91.8 mg/kg i.p.): 6/6
Number of dead mice, 1st day (ICR mice; male, 91.8 mg/kg i.p.): 0/6
Number of dead mice, 2nd day (ICR mice; male, 91.8 mg/kg i.p.): 2/6
Number of dead mice, 3rd day (ICR mice; male, 91.8 mg/kg i.p.): 4/4
Lethality (ICR mice; male, 91.8 mg/kg i.p.): 100.0
T/C (%) (murine leukemia L1210; 3.1 mg/kg i.p.): 154%
T/C (%) (murine leukemia L1210; 6.2 mg/kg i.p.): 198%
T/C (%) (murine leukemia L1210; 12.5 mg/kg i.p.): 245%
T/C (%) (murine leukemia L1210; 25 mg/kg i.p.): toxic
T/C (%) (murine leukemia L1210; 50 mg/kg i.p.): toxic

From US5395947A, “Platinum(II) complex and processes for preparing the same” (Sunkyong Industries, Ltd., priority 1991, dated 1995)
